# In patent publication US20230099344A1, “COMPOUNDS AND METHODS FOR THE TARGETED DEGRADATION OF IRAK-4” (Arvinas Operations, Inc., priority 2021, published 2023):
# Legend:
# Format in all cases: cell-based
# IL6 [1] = assay: LPS stimulated IL6 inhibition assay in PBMC; settings: Homo sapiens, PBMC, 24 h, human PBMCs, LPS stimulation, compound overnight, IL6 by MSD after 24 hrs; for Dmax: read-out: LPS Stim IL6 inhibition Dmax; for IC50: read-out: LPS stim IL6 inhibition IC50
# How it was run: (§1)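 Seed human PBMC, 2.0×10^6 cells/mL → compound overnight → stimulant (IL-1β, LPS or R848) at per-donor EC50 → 24 hrs → media to MSD for IL6/IL8.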
# IL6 [2] = assay: R848 stimulated IL6 inhibition assay in PBMC; settings: PBMC, human PBMCs, R848 stimulation, compound overnight, IL6 by MSD after 24 hrs; for Dmax: Homo sapiens, 24 h, read-out: R848 stim IL6 inhibition Dmax; for IC50: read-out: R848 stim IL6 inhibition IC50
# How it was run: as §1
# IRAK-4 = target: T1, IRAK-4 (Homo sapiens, UniProt Q9NWZ3); assay: IRAK-4 ELISA, PBMC degradation; design: endogenous in cells; host or cells: PBMC; settings: treated overnight
# T1 sequence (Q9NWZ3 1-460): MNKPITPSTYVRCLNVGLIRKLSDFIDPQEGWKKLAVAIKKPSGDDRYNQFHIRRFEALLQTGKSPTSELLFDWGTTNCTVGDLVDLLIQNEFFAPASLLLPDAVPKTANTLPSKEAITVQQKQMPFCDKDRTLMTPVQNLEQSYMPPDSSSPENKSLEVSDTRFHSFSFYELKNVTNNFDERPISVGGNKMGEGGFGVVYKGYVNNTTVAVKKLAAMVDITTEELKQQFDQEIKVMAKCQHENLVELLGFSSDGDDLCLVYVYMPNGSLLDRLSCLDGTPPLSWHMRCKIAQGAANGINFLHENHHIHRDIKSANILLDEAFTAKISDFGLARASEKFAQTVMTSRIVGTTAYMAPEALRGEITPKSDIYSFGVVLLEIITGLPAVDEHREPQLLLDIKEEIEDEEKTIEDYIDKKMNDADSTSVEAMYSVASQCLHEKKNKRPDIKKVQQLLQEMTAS
# How it was run: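 Readout: IRAK-4 protein level in cell lysate, sandwich ELISA. Cells: OCI-Ly10 at 1×10^6/ml or PBMC at 2×10^6/ml, compound added same day, overnight incubation.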
SMILES,IC50 (IL6 [1]) [nM],IC50 (IL6 [2]) [nM],DC50 (IRAK-4) [nM],Dmax (IRAK-4) [%],PBMC DC90 (IRAK-4),Dmax (IL6 [1]) [%],Dmax (IL6 [2]) [%]
CCN(C1CN(c2ccc(C(=O)NC3CCC(=O)NC3=O)c(F)c2)C1)[C@H]1CC[C@H](n2cc3cc(NC(=O)c4cnn5cccnc45)c(OCC4CC4)cc3n2)CC1 (stereo partly drawn) [Example 369],10 to 50,10 to 50,1 to 5,≥ 90,A (A represents a DC90 value <10.0 nM),< 70,≥ 90
CN(C1CN(c2ccc3c(c2)CN(C2CCC(=O)NC2=O)C3=O)C1)[C@H]1CC[C@H](N2Cc3cc(NC(=O)c4cnn5cccnc45)c(N4CCC(N5CCC5)CC4)cc3C2=O)CC1 (stereo partly drawn) [Example 370],< 10,< 10,1 to 5,≥ 90,A (A represents a DC90 value <10.0 nM),≥ 90,≥ 90
CN(C1CCN(c2ccc3c(c2)C(=O)N(C2CCC(=O)NC2=O)C3=O)CC1)[C@H]1CC[C@H](N2Cc3cc(NC(=O)c4cnn5cccnc45)c(N4CCN(CC(F)F)CC4)cc3C2=O)CC1 (stereo partly drawn) [Example 371],10 to 50,10 to 50,< 1,≥ 90,B (B represents a DC90 value ≥10.0 nM and <25.0 nM),70 to 80,≥ 90
O=C1CCC(N2C(=O)c3ccc(O[C@H]4C[C@H](N[C@H]5CC[C@H](n6cc7cc(NC(=O)c8cnn9cccnc89)c(OCC8CC8)cc7n6)CC5)C4)cc3C2=O)C(=O)N1 (stereo partly drawn) [Example 374],10 to 50,10 to 50,< 1,≥ 90,B (B represents a DC90 value ≥10.0 nM and <25.0 nM),70 to 80,≥ 90
"Cn1c(=O)n(C2CCC(=O)NC2=O)c2cccc(N3CC(CN4CCC(n5cc6cc(NC(=O)c7cnn8cccnc78)c(OCC7CC7)cc6n5)CC4)C3)c21 (stereo not drawn) [Example 378, N-(6-(cyclopropylmethoxy)-2-(1-((1-(1-(2,6-dioxopiperidin-3-yl)-3-methyl-2-oxo-2,3-dihydro-1H-benzo[d]imidazol-4-yl)azetidin-3-yl)methyl)piperidin-4-yl)-2H-indazol-5-yl)pyrazolo[1,5-a]pyrimidine-3-carboxamide]",< 10,< 10,< 1,≥ 90,A (A represents a DC90 value <10.0 nM),80 to 90,≥ 90

# Second part, led by results:
IC50 (IL6 [1]) [nM],IC50 (IL6 [2]) [nM],DC50 (IRAK-4) [nM],Dmax (IRAK-4) [%],PBMC DC90 (IRAK-4),SMILES,Dmax (IL6 [1]) [%],Dmax (IL6 [2]) [%]
< 10,10 to 50,< 1,≥ 90,A (A represents a DC90 value <10.0 nM),CN([C@H]1CC[C@H](n2cc3cc(NC(=O)c4cnn5cccnc45)c(OCC4CC4)cc3n2)CC1)[C@H]1C[C@H](Oc2ccc3c(c2)C(=O)N(C2CCC(=O)NC2=O)C3=O)C1 (stereo partly drawn) [Example 372],80 to 90,≥ 90
10 to 50,10 to 50,< 1,≥ 90,A (A represents a DC90 value <10.0 nM),CCN([C@H]1CC[C@H](n2cc3cc(NC(=O)c4cnn5cccnc45)c(OCC4CC4)cc3n2)CC1)[C@H]1C[C@H](Oc2ccc3c(c2)C(=O)N(C2CCC(=O)NC2=O)C3=O)C1 (stereo partly drawn) [Example 373],70 to 80,80 to 90
< 10,10 to 50,1 to 5,≥ 90,A (A represents a DC90 value <10.0 nM),O=C1CCC(N2C(=O)c3ccc(N4CCN(C[C@H]5CC[C@H](n6cc7cc(NC(=O)c8cnn9cccnc89)c(OCC8CC8)cc7n6)CC5)CC4)cc3C2=O)C(=O)N1 (stereo partly drawn) [Example 375],70 to 80,≥ 90
10 to 50,10 to 50,1 to 5,≥ 90,A (A represents a DC90 value <10.0 nM),O=C1CCC(NC(=O)c2ccc(O[C@H]3C[C@H](N[C@H]4CC[C@H](n5cc6cc(NC(=O)c7cnn8cccnc78)c(OCC7CC7)cc6n5)CC4)C3)cc2F)C(=O)N1 (stereo partly drawn) [Example 376],70 to 80,≥ 90
